From EP4549575A1 (priority 2023, dated 2025) come the findings set out here.

A word on the pEC50: it is the negative decadic logarithm of the EC50, by convention in mol/L. Low readings indicate a high EC50, high ones a low EC50. Broadly, the EC99 is the point of the concentration-response curve where the effect stands at 99%.

The subject of series [1] is P. infestans. In kind it is in vivo. The settings on record: tomato (Solanum lycopersicum, cv. Marmande) leaf discs; co-inoculation with sporangia; 5-7 days; reference concentration 200 µM.
The subject of another series is pronase. Description: Stability towards proteolysis (pronase, LC-MS). In kind it is in vitro ADME, Streptomyces griseus. The note with it: peptide 200 µM, protease 5 µg/mL, 37°C, pH 7.5. On the procedure: The evaluation of the stability of CP20 and Ac-LP20 towards proteolysis was tested at a peptide concentration of 200 µM using pronase (commercially available mixture of proteases isolated from the extracellular fluid of Streptomyces griseus, 2.5 µg/mg). Another peptide was added to this analysis, namely LP20 (without N-terminal acetylation), as it is easier to synthesize and to also assess the influence of N-terminal acetylation on the stability of LP20. Each peptide was tested in the presence of the protease (5 µg/mL) at 37°C in a buffer solution (50 mM Tris, 10 mM CaCl2, 150 mM NaCl, 0.05 % (w/v) Brij 35, pH 7.5) and its stability monitored by liquid chromatography coupled to mass spectrometry (LC-MS) at different time intervals (t=0 min, 10 min, 30 min, 1 h, 2 h). To stop enzyme activity, a small amount of the solution (60 µL) was transferred to an HPLC vial containing 6 µL of a 10% TFA solution at these different time points.

For series [2], the system named is P. infestans. It counts as cell-based.
Series [3] has as its system P. infestans.
The subject of the next series is Escherichia coli DH5α. Kind of series: Specificity: growth in liquid culture (OD620). In kind it is cell-based. The note with it: 200 µM; LB medium; measured hourly up to 5 h. The procedure: (§1) The specificity of antimicrobial molecules is a key aspect in their development, as good degrees of specificity result in the absence of toxicity to other organisms in the environment such as animals, plants, fungi, bacteria, yeasts, livestock and humans. Therefore, initial assays were carried out to assess the toxicity profiles of CP20 and CP32, similar to those reported in Colombo et al.. For this purpose, the two cyclic peptides were added at a concentration of 200 µM to liquid cultures of the following microorganism species: • (i) Agrobacterium tumefaciens GV3101, (ii) Escherichia coli DH5α and (iii) Saccharomyces cerevisiae. The culture media used were respectively Luria-Bertani (LB) for the bacterial cultures, while Yeast Extract Peptone Dextrose (YEPD) medium was used for S. cerevisiae. Growth was measured hourly (up to 5 h) using a spectrophotometer (OD620).

Another series relates to Saccharomyces cerevisiae. Description: Specificity: growth in liquid culture (OD620). It counts as cell-based. The note with it: 200 µM; YEPD medium; measured hourly up to 5 h. On the procedure:
as §1

The next series relates to P. capsici. In kind it is cell-based, Phytophthora capsici Leonian.
In series [4] the test system is P. infestans. In kind it is cell-based. The settings on record: 10 mg/l; PAM agar; mycelium plug; 3-4 days; positive control.
In the next series the test system is P. viticola. It counts as in vivo, Plasmopara viticola (Berk. et Curt.) Berl. and De Toni. The settings on record: grapevine (Vitis vinifera cv. Pinot noir) leaf discs; mean ± standard deviation vs untreated control; concentration not given.
Series [5] deals with P. infestans. In kind it is cell-based. The note with it: 10 mg/l; Pea Broth; sporangia; OD620, 72 h; positive control.
The test system of the next series is P. ultimum. It counts as cell-based, Pythium ultimum var. ultimum Trow. The note with it: PDA agar, mycelium; mean ± standard deviation vs untreated control; concentration not given.
Setting [6] is: from PGI values at 0.02-200 µM, three-parameter logistic model.

pEC50: −log10 of the molar value. Like-named read-outs stand apart in the source and are kept apart here. Square brackets hold non-standard residues; d marks the D form. Peptide text beside a SMILES is read from it. βAla = NCCC(=O)O

Consider `CC(C)C[C@@H]1NC(=O)[C@H](CCCNC(=N)N)NC(=O)CNC(=O)CCNC(=O)[C@H](C(C)C)NC(=O)[C@H](CCCNC(=N)N)NC(=O)[C@H](CC(C)C)NC(=O)[C@H](Cc2c[nH]c3ccccc23)NC(=O)[C@H](CCCNC(=N)N)NC1=O` [CP32, βA-G-R-L-R-W-L-R-V] (cyclo(GRLRWLRV[βAla])), for which the “Percentage Protection Index for the leaf discs (PPI), reduction in symptoms” value with P. infestans [1] is on record as 90.03%. Moreover, the “time of total proteolysis of the peptide” value with pronase was 30 min. Moreover, in the series with pronase (0-2 h), the stability against proteolysis entry is given as “more stable against proteolysis than its linear analogues”. Further, the PPI with P. infestans [2] (200 µM, P. infestans mycelium, solid medium, linear vs cyclic peptides (Figure 8)) came to 87.44%. For the same compound, the “PPI (%) ± dev. std (Solid medium)” value in the series on P. infestans [2] (peptide 200 µM, PAM agar, mycelium plug, 3-4 days, vs untreated control) is listed as 87.93 ± 9.47 (b) %. In the series with P. infestans [3] (setting [6]), this compound showed a pEC50 of 4.80 and an EC99 of 56.18 µM. Further, in the series on P. infestans [3] (peptide 200 µM, Pea Broth, sporangia, OD620, 72 h, vs untreated control), the “PGI (%) ± dev. std (Liquid medium)” value was 90.61 ± 10.87 (b) %. For the same compound, the “bacterial growth (OD620)” value in the series on Escherichia coli DH5α was “no alteration in bacterial growth”. Also, the “growth inhibition (OD620)” value in the series on Saccharomyces cerevisiae was “no growth inhibition”.

For the compound `C#CCOc1ccc(CCNC(=O)C(OCC#C)c2ccc(Cl)cc2)cc1OC` (stereo not drawn) [Mandipropamid, mandipropamid], the “P. capsici (PIC - %)” value in the series on P. capsici is given as 100 ± 0 (a) %. Further, in the series with P. infestans [4], the “PPI (%) ± dev. std (Solid medium)” value was 100.00 ± 0 (a) %. The “P. viticola (IPP - %)” value in the series with P. viticola is given as 100 ± 0 (a) %. In the series on P. infestans [5], the “PGI (%) ± dev. std (Liquid medium)” value is 100.00 ± 0 (a) %.

With `COCC(=O)N(c1c(C)cccc1C)[C@H](C)C(=O)OC` [Metalaxyl-M], the “P. ultimum (IPP - %)” value in the series with P. ultimum was 100 ± 0 (a) %.
